Conditions in all cases: incubation time: 72 h
Assay [1] deals with CAL-148. In words: drug sensitivity score (DSS), CellTiter-Glo (DSS (AUC-based score)); higher = stronger drug effect (viability inhibition or cytotoxicity); extreme values may be limits of the assay. In outline: (§1)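 Breast cancer cell lines, seeded as 20 µl suspension, were incubated 72 h with compound in 384-well plates at 5 concentrations in 10-fold steps over a 10,000-fold range set for each compound. Fluorescence from CellTox Green was read at 485/520 nm before CellTiter-Glo luminescence, which was read after 10 min at room temperature. Every plate was normalised to 0.1 % DMSO and a positive kill control, and the drug sensitivity score was taken from the area under the fitted dose-response curve.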
(Cellular ATP, detected with luciferase, serves as a proxy for viable cell number.)

Assay [2] deals with MDA-MB-436. The description is as above. In outline:
as §1

Another assay relates to Hs578T. Nature of the assay: normalised viability (% of control), CellTiter-Blue; higher = more viable cells (about 100 = DMSO control). A digest of the protocol:
(§2)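 Breast cancer cell lines in 20 µl suspension were seeded onto 384-well plates pre-loaded with compound dissolved in 5 µl medium, then incubated 72 h. CellTiter-Blue reagent (2.5 µl) was added for 2 h at 37 °C and fluorescence read at 560/590 nm. Each plate was normalised to vehicle (100) and a positive kill control (0), with Z'-factor quality control. The value is normalised viability at one listed concentration of the series.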
Background: Alamar Blue is a resazurin reagent that responds to reducing activity.

Another assay deals with MDA-MB-453. The assay is described as above. In outline:
as §2

Another assay deals with BT-474. Described as above. In outline: as §2
Assay [3] has as its system CAL-148. Described as above. In outline: as §2
Assay [4] concerns MDA-MB-436. The assay is described as above. In outline: as §2
The next assay concerns HCC1143. Described as above. A digest of the protocol:
as §2

The next assay has as its system CAL-51. The assay is described as above. A digest of the protocol:
as §2

The subject of another assay is MFM-223. The assay is described as above. A digest of the protocol:
as §2

The test system of another assay is HCC1599. Described as above. A digest of the protocol: as §2
The next assay has as its system CAL-85-1. Described as above. A digest of the protocol:
as §2

In a further assay the test system is DU-4475. The description is as above. In outline: as §2
Another assay deals with CAL-120. The description is as above. A digest of the protocol: as §2
For the next assay, the system named is HDQ-P1. The description is as above. In outline: as §2
The next assay deals with HCC1937. The description is as above. A digest of the protocol:
as §2

The test system of the next assay is SK-BR-3. The assay is described as above. In outline:
as §2

The subject of the next assay is BT-549. The assay is described as above. In outline:
as §2

The test system of the next assay is MDA-MB-231. Described as above. A digest of the protocol: as §2
Another assay has as its system MDA-MB-468. Described as above. In outline:
as §2

Structures are written as SMILES.

Regarding `CC(C)(C)Cn1c(N)nc2ccc(-c3[nH]c(C(C)(C)C)nc3-c3ccc(F)cc3)nc21`, the drug sensitivity score in the assay with CAL-148 [1] and in the assay with MDA-MB-436 [2] was 0 throughout.
`Cn1cc(C[C@@H](N)C(=O)O)c2ccccc21` [1-methyl-D-tryptophan]: the drug sensitivity score in the assay with CAL-148 [1] and in the assay on MDA-MB-436 [2] was 0 each time.
Turning to `CC[C@H](CC#N)OC(=O)N[C@@H](C)c1cccc(NC(=O)Nc2ccc(-c3cnco3)c(OC)c2)c1` [AVN944], the drug sensitivity score in the assay with CAL-148 [1] stood at 12.5; in the assay on MDA-MB-436 [2], 12.9.
Turning to `Cc1c(N)nc([C@H](CC(N)=O)NC[C@H](N)C(N)=O)nc1C(=O)N[C@H](C(=O)N[C@H](C)[C@@H](O)[C@H](C)C(=O)N[C@H](C(=O)NCCc1nc(-c2nc(C(=O)NCCC[S+](C)C)cs2)cs1)[C@@H](C)O)[C@@H](OC1OC(CO)C(O)C(O)C1OC1OC(CO)C(O)C(OC(N)=O)C1O)c1cnc[nH]1` (stereo partly specified) [Bleomycin], the drug sensitivity score was determined as 4.27 with CAL-148 [1] and 4.49 in the assay on MDA-MB-436 [2]. Further, the normalised viability with Hs578T (10 nM) was found to be 90.3%; in the assay on Hs578T (1000 nM), 64.3%; in the assay on Hs578T (10000 nM), 50%; in the assay on MDA-MB-453 (3 nM), 103%; in the assay with MDA-MB-453 (30 nM), 106%; with MDA-MB-453 (100 nM) it was 100%. The normalised viability turned out to be 102% in the assay with BT-474 (10 nM); 97.9% in the assay with BT-474 (1000 nM); 98% with BT-474 (10000 nM); 88% in the assay on CAL-148 [3] (3 nM); 82.5% in the assay with CAL-148 [3] (30 nM); 87% in the assay on CAL-148 [3] (100 nM). For the same compound, the normalised viability with MDA-MB-436 [4] (10 nM) came to 92.3%; in the assay with MDA-MB-436 [4] (1000 nM), 79%; with MDA-MB-436 [4] (10000 nM) it was 44.7%; in the assay with HCC1143 (10 nM), 74.6%; with HCC1143 (1000 nM) it was 64.2%; in the assay with HCC1143 (10000 nM) it was 49.4%. For the same compound, the normalised viability amounted to 97.6% in the assay with CAL-51 (3 nM); 96% with CAL-51 (30 nM); 96.3% in the assay on CAL-51 (100 nM); 106% in the assay with MFM-223 (10 nM); 107% in the assay with MFM-223 (1000 nM); 100% in the assay on MFM-223 (10000 nM). For the same compound, the normalised viability was found to be 134% in the assay on HCC1599 (10 nM); 112% with HCC1599 (1000 nM); 118% in the assay with HCC1599 (10000 nM); 101% with CAL-85-1 (3 nM); 94.9% in the assay on CAL-85-1 (30 nM); 96.6% in the assay with CAL-85-1 (100 nM). For the same compound, the normalised viability was found to be 117% with DU-4475 (3 nM); 84.4% in the assay on DU-4475 (30 nM); 116% in the assay with DU-4475 (100 nM); 94.4% with CAL-120 (10 nM); 78.5% in the assay on CAL-120 (1000 nM); 67.7% in the assay on CAL-120 (10000 nM). For the same compound, the normalised viability in the assay with HDQ-P1 (3 nM) was 80.9%; in the assay with HDQ-P1 (30 nM), 88.5%; in the assay on HDQ-P1 (100 nM), 27.8%; in the assay with HCC1937 (10 nM), 92.2%; in the assay with HCC1937 (1000 nM), 54.7%; in the assay on HCC1937 (10000 nM) it was 28.2%. Besides, the normalised viability in the assay on SK-BR-3 (10 nM) was determined as 89.6%; with SK-BR-3 (1000 nM) it was 99.1%; with SK-BR-3 (10000 nM), 89.5%; with BT-549 (10 nM) it was 87.5%; in the assay on BT-549 (1000 nM) it was 57.1%; with BT-549 (10000 nM), 62.4%. Also, the normalised viability was 88.7% with MDA-MB-231 (10 nM); 70% in the assay with MDA-MB-231 (1000 nM); 60.3% with MDA-MB-231 (10000 nM); 94.6% in the assay with MDA-MB-468 (10 nM); 86.6% in the assay on MDA-MB-468 (1000 nM); 72.7% with MDA-MB-468 (10000 nM).
Turning to `CCc1cnn2c(NCc3ccc[n+]([O-])c3)cc(N3CCCC[C@H]3CCO)nc12` [Dinaciclib], the results for the drug sensitivity score in the assay with CAL-148 [1] and in the assay with MDA-MB-436 [2] were 7.54 and 20.7, respectively.
On the same counts, the results for `Cc1c(C(=O)Nc2ccc(N3C[C@@H](C)O[C@@H](C)C3)nc2)cccc1-c1ccc(OC(F)(F)F)cc1` [Erismodegib] are 0 and 2.73.
Turning to `COc1cc(Nc2ncc(F)c(Nc3ccc4c(n3)N(COP(=O)(O)O)C(=O)C(C)(C)O4)n2)cc(OC)c1OC` [Fostamatinib], the drug sensitivity score with CAL-148 [1] and in the assay with MDA-MB-436 [2] was 0 each time.
For `CC(C)NC[C@@H](C(=O)N1CCN(c2ncnc3c2[C@H](C)C[C@H]3O)CC1)c1ccc(Cl)cc1` [GDC-0068], the drug sensitivity score was found to be 19.6 with CAL-148 [1] and 1.1 in the assay with MDA-MB-436 [2].
For `CCCc1cc(C)[nH]c(=O)c1CNC(=O)c1cc(-c2ccnc(N3CCN(C)CC3)c2)cc2c1cnn2C(C)C` [GSK343], the drug sensitivity score is 0.724 in the assay on CAL-148 [1] and 1.6 in the assay with MDA-MB-436 [2].
Turning to `COc1cc2c(cc1-c1c(C)noc1C)ncc1[nH]c(=O)n([C@H](C)c3ccccn3)c12` [I-BET151], the drug sensitivity score with CAL-148 [1] and in the assay on MDA-MB-436 [2] was 0 in each case.
Consider `CC(C)n1nc(-c2ccc3oc(N)nc3c2)c2c(N)ncnc21` [INK128], for which the drug sensitivity score in the assay with CAL-148 [1] is 14.7; in the assay with MDA-MB-436 [2], 11.3.
